Measured values from PMC9962512, “Synthesis and Anti-Angiogenic Activity of Novel c(RGDyK) Peptide-Based JH-VII-139-1 Conjugates” (Pharmaceutics, 2023).
Like-named read-outs stand apart in the source and are kept apart here.

Assays:
human SRPK1 = target: T1, human SRPK1 (Homo sapiens, UniProt Q96SB4); assay: In vitro kinase assay (GST-SRPK1, GST-LBRNt(62-92) substrate, radioactive); assay type: biochemical; details: 25 μM ATP; mean ± SD of three experiments; read-out: IC50 (nΜ) for SRPK1
T1 construct: made in house; host or cells: bacteria (pGEX-2T vector)
T1 sequence (Q96SB4 whole entry): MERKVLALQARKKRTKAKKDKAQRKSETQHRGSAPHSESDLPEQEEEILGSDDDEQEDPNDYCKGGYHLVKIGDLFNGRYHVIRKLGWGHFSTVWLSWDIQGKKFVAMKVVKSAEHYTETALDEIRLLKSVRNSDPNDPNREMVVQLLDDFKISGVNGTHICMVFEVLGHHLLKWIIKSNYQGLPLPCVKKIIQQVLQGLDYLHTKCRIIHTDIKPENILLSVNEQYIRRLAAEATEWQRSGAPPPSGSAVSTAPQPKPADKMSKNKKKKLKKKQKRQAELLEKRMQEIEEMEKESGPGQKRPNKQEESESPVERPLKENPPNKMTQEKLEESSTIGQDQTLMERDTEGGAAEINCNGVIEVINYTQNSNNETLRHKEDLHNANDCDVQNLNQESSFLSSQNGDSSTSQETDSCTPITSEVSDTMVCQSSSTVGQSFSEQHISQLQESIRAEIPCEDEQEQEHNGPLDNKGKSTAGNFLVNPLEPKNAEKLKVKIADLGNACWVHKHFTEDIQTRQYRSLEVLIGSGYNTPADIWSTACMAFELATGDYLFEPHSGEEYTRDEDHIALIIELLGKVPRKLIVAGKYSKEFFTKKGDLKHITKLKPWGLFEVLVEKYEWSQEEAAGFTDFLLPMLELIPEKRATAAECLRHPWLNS
Method: The pGEX-2T bacterial expression vector (Amersham Biosciences GmbH, Freiburg, Germany) was used to construct plasmids that encode human SRPK1 and a fragment of the N-terminal domain of turkey LBR comprising amino acids 62–92 (LBRNt(62–92)). The GST-fusion proteins were produced in bacteria and purified using glutathione-Sepharose (Amersham Biosciences) according to the manufacturer’s instructions. Kinase assays were carried out in a total volume of 25 μL containing 0.5 μg GST-SRPK1, 1.5 μg GST-LBRNt(62–92) as substrate, 12 mM Hepes pH 7.5, 10 mM MgCl2, 25 μM ATP, and increasing concentrations of the inhibitors as indicated. In all assays, the final concentration of dimethyl sulfoxide (DMSO) was adjusted to 4%. Phosphorylated GST-LBRNt(62–92) was detected by autoradiography using Super RX (Fuji medical X-ray film,(Fujifilm Holdings Corporation, Tokyo, Japan)). Incorporated radioactivity was quantified by excising the radioactive bands from the SDS-PAGE gel and scintillation counting.

HeLa cells = assay: cells; assay type: cell-based; details: 48 h; for TGI: total growth inhibition
Method: (§1) HeLa, MCF7, MDA-MB-231 and K562 cancer cell lines were provided by ATCC (American Type Culture Collection). Cells were incubated at 37 °C with 5% CO2. HeLa, MCF7 and MDA-MB-231 cells were maintained in DMEM, while K562 cells were maintained in RPMI medium, both supplemented with 10% (v/v) fetal bovine serum (FBS) and antibiotics/antimycotics.
(§2) HeLa, MCF7, MDA-MB-231 and K562 cells were seeded in 96-well plates (3 × 10^3 cells per well) and grown in medium supplemented with 10% FBS as monolayers at 37 °C in a 5% CO2 incubator. One day after seeding, cells were exposed to increasing concentrations of the inhibitors for 48 h. The viability of the cells was estimated by an (3-(4,5-imethylthiazol-2-yl)-2,5-diphenyltetrazolium bromide (MTT) metabolic assay as described previously, and the percentage growth inhibition (GI50, TGI, IC50) was calculated according to National Cancer Institute recommendations as referred to Leonidis et al.. Values shown represent the means ± SE of three independent experiments.

K562 cells = assay: cells; assay type: cell-based; details: for TGI: total growth inhibition
Method: as §1, §2

MCF7 cells = assay: cells; assay type: cell-based; details: for TGI: total growth inhibition
Method: as §1, §2

MDA-MB-231 cells = assay: cells; assay type: cell-based; details: for TGI: total growth inhibition
Method: as §1, §2

[1] = MTT assay, summary over the cell panel; assay type: cell-based
Method: as §1, §2

[2] = test system: HeLa, MCF-7, MDA-MB-231 and K562 cancer cells; assay: MTT assay, summary over the cell panel; assay type: cell-based; details: HeLa, MCF-7, MDA-MB-231 and K562; 48 h; read-out: GI50 (cytostatic effect), range over compounds and cell lines
Method: as §1, §2

[3] = Stability in Dulbecco's Modified Eagle Medium (+10% FBS); assay type: in vitro ADME; details: for half-life at 396 µg/mL: DMEM + 10% FBS, read-out: half-life t1/2
Method: Conjugates geo75, geo77, geo85 and geo107 (200 μg in 5 μL DMSO) were diluted in 0.5 mL DMEM (+10% fetal bovine serum) mixture and incubated at 37 °C. At predetermined time intervals, 50 μL of the mixture was removed and quenched with 150 μL water/acetonitrile/formic acid solution (100/100/0.1 volume ratio) and the sample was analyzed by LC-MS. Three independent experiments were carried out and the results are presented as the mean ± standard deviation.

[4] = Stability in human plasma; assay type: in vitro ADME; details: for half-life at 495 µg/mL: human, read-out: half-life t1/2
Method: First, 250 μg of (JH-VII-139-1)-c(RGDyK)-based conjugates were diluted in 5 μL DMSO and the mixture was added to 0.5 mL of human plasma. The mixtures were incubated at 37 °C. 50 μL of aliquot was removed at predetermined time points and quenched with 150 μL ice-cold acetonitrile (+0.1% formic acid). Then, the mixture was centrifuged at 10,000 rpm for 10 min. Then, 50 μL of supernatant was added to 50 μL of ultrapure water (+0.1% formic acid) and analyzed by LC-MS. Results are presented as the mean ± SD of three independent experiments.

[5] = test system: zebrafish Tg(kdrl:gfp) embryos; assay: Zebrafish angiogenesis assay, intersegmental vessels (ISVs); assay type: in vivo; details: 10 μM, added 24 hpf, imaged 72 hpf
Method: The Tg(kdrl:gfp)^s843 [38] was used to measure angiogenesis. Zebrafish breeding was carried out according to the European Directive 2010/63 and the Recommended Guidelines for Zebrafish Husbandry Conditions.
Zebrafish Tg(kdrl:gfp)^s843 embryos were raised in E3 medium up to 24 hpf; then dechorinated and finally transferred to a 12-well plate (10 embryos per well). Each compound was dissolved in DMSO and then added in the wells at the following final concentrations: 10 μM JH-VII-139-1 and c(RGDyK), and 1.3 μM geo75, geo77, geo85, geo107. Treated embryos and control embryos (at the corresponding DMSO concentration) were kept at 28 °C and imaged at 72 hpf.
After anesthetizing embryos with 0.4% tricaine methanesulfonate (MS222), a fluorescent image was acquired using a Hamamatsu ORCA-Flash4.0LT digital camera. We used the total length of 8 intersegmental vessels (ISVs) per embryo and the width from each of the above ISVs was measured at three different points, i.e., the top, the middle, and the bottom point of each ISV, and then the average width was estimated. We measured the 8 ISVs that flank the end of the yolk extension. Length and widths were measured using the open-source software ImageJ 1.53a (http://imagej.nih.gov/ij (accessed on 30 May 2022)). A total of 30 embryos (4–7 per group) from independent experiments were measured. […]

SRPK1 = test system: SRPK1; parameters: method as in PMID 29478907; details: SRPK1 ref 27; cited from earlier work
[6] = test system: angiogenesis in AMD animal model; parameters: method as in PMID 29478907; details: AMD animal model ref 27; cited from earlier work
α5β1 integrins = test system: α5β1 integrins; parameters: method as in PMID 28074920; details: α5β1 ref 25; cited from earlier work
[7] = buffer, pH 7.4
Method: (§3) The mixture was then incubated at 37 °C, samples were collected at predetermined time points (0, 1, 2, 3, 4, 5, 24 and 48 h), and analyzed by LC-MS. Results are presented as the mean ± of SD after repeating the experiment three times.

physchem [8] = details: buffer, pH 5.2
Method: as §3

physchem [9] = details: buffer, pH 7.4
Method: as §3

[10] = DMEM with 10% fetal bovine serum, 37 °C

Compound | IC50 (human SRPK1) [µM] | GI50 (HeLa cells) [µM] | IC50 (HeLa cells) [µM] | GI50 (K562 cells; 48 h) [µM] | IC50 (K562 cells; 48 h) [µM] | GI50 (MDA-MB-231 cells; 48 h) [µM] | IC50 (MDA-MB-231 cells; 48 h) [µM] | IC50 [1] [µM] | TGI (HeLa cells; HeLa) [μΜ] | TGI (K562 cells; K562, 48 h) [μΜ] | TGI (MCF7 cells; MCF7, 48 h) [μΜ] | TGI (MDA-MB-231 cells; MDA-MB-231, 48 h) [μΜ] | inhibition of total width of ISVs [5] | GI50 (MCF7 cells; 48 h) [µM] | IC50 (MCF7 cells; 48 h) [µM] | half-life at 495 µg/mL ([4]; 37 °C) [h] | half-life t1/2 [7] | half-life (physchem [8]) [h] | half-life at 396 µg/mL [3, 10] [h] | half-life (physchem [9]) [h] | also measured
CCc1cc2c(cc1-c1cc[nH]n1)C(C)(C)c1[nH]c3cc(C#N)ccc3c1C2=O [JH-VII-139-1, 9-Ethyl-6,6-dimethyl-11-oxo-8-(1H-pyrazol-3-yl)-6,11-dihydro-5H-benzo[b]carbazole-3-carbonitrile] | 0.032 ± 0.0005 |  |  |  |  |  |  |  | 19 ± 0.2 | 15 ± 0.5 | 19 ± 0.3 | 21 ± 0.4 | non-significant trend |  |  |  |  |  |  |  | GI50 (HeLa cells; Homo sapiens, HeLa, 50% growth inhibition, read-out: GI50): 8 ± 0.2 µM; IC50 (HeLa cells; Homo sapiens, HeLa, cytotoxic effect, read-out: IC50): 14 ± 0.8 µM; GI50 (K562 cells; Homo sapiens, K562, 48 h, 50% growth inhibition, read-out: GI50): 8 ± 0.5 µM; IC50 (K562 cells; Homo sapiens, K562, 48 h, cytotoxic effect, read-out: IC50): 13 ± 0.3 µM; GI50 (MCF7 cells; Homo sapiens, MCF7, 48 h, 50% growth inhibition, read-out: GI50): 9 ± 0.2 µM; IC50 (MCF7 cells; Homo sapiens, MCF7, 48 h, cytotoxic effect, read-out: IC50): 8 ± 0.6 µM; GI50 (MDA-MB-231 cells; Homo sapiens, MDA-MB-231, 48 h, 50% growth inhibition, read-out: GI50): 11 ± 0.3 µM; IC50 (MDA-MB-231 cells; Homo sapiens, MDA-MB-231, 48 h, cytotoxic effect, read-out: IC50): 18 ± 0.5 µM; IC50 at 48 h ([1]; human, MDA-MB-231 and K562 cancer cells, HeLa, MCF-7, MDA-MB-231 and K562, 48 h, read-out: IC50 (cytotoxic effect), range over compounds and cell lines): 3 to 18 µM; GI50 [2]: 4 to 12 µM; half-life at 396 µg/mL ([3]; bovine, DMEM with 10% fetal bovine serum (cell-free), 37 °C): > 48 h; half-life at 495 µg/mL ([4]; plasma, 37 °C): > 48 h; IC50 (SRPK1): 0.0011 µM; effect on angiogenesis [6]: blocks angiogenesis
N=C(N)NCCC[C@@H]1NC(=O)[C@H](CCCCN)NC(=O)[C@@H](Cc2ccc(O)cc2)NC(=O)[C@H](CC(=O)O)NC(=O)CNC1=O [c(RGDyK)] |  | 79 ± 2.2 | […] | […] | […] | […] | […] |  | […] | […] | […] | […] | non-significant trend | […] | […] |  |  |  |  |  | IC50 (α5β1 integrins): 0.236 ± 0.045 µM
CCc1cc2c(cc1-c1ccn(C(=O)NCCOCCOCCNC(=O)NCCCC[C@@H]3NC(=O)[C@@H](Cc4ccc(O)cc4)NC(=O)[C@H](CC(=O)O)NC(=O)CNC(=O)[C@H](CCCNC(=N)N)NC3=O)n1)C(C)(C)c1[nH]c3cc(C#N)ccc3c1C2=O [geo85] | 0.042 ± 0.0019 | > 100 | > 100 | > 100 | > 100 | > 100 | > 100 |  |  |  |  |  |  |  |  | > 48 |  | > 48 | > 48 | > 48 | hydrolysis ([3]; DMEM, after 24 h): 10%; metabolised at 24 h, 495 µg/mL ([4]; after 24 h, read-out: hydrolysis): 10%
CCc1cc2c(cc1-c1ccn(C(=O)NCCOCCOCCNC(=O)N[C@@H](CCCCN)C(=O)NCCCC[C@@H]3NC(=O)[C@@H](Cc4ccc(O)cc4)NC(=O)[C@H](CC(=O)O)NC(=O)CNC(=O)[C@H](CCCNC(=N)N)NC3=O)n1)C(C)(C)c1[nH]c3cc(C#N)ccc3c1C2=O [geo107] |  |  |  |  |  |  |  |  |  |  |  |  |  |  |  | > 48 |  | > 48 | > 48 | > 48 | residual concentration (of initial concentration), lowest ([3]; cell media (DMEM), up to 48 h): ≥ 80%; residual concentration (of initial concentration), lowest ([4]; up to 48 h): ≥ 80%

Continued, in another order:

IC50 (human SRPK1) [µM] | GI50 (HeLa cells) [µM] | IC50 (HeLa cells) [µM] | GI50 (K562 cells; 48 h) [µM] | IC50 (K562 cells; 48 h) [µM] | GI50 (MDA-MB-231 cells; 48 h) [µM] | IC50 (MDA-MB-231 cells; 48 h) [µM] | IC50 [1] [µM] | Compound | TGI (HeLa cells; HeLa) [μΜ] | TGI (K562 cells; K562, 48 h) [μΜ] | TGI (MCF7 cells; MCF7, 48 h) [μΜ] | TGI (MDA-MB-231 cells; MDA-MB-231, 48 h) [μΜ] | inhibition of total width of ISVs [5] | GI50 (MCF7 cells; 48 h) [µM] | IC50 (MCF7 cells; 48 h) [µM] | half-life at 495 µg/mL ([4]; 37 °C) [h] | half-life t1/2 [7] | half-life (physchem [8]) [h] | half-life at 396 µg/mL [3, 10] [h] | half-life (physchem [9]) [h] | also measured
0.035 ± 0.0011 |  |  |  |  |  |  | 3 to 18 | CCc1cc2c(cc1-c1ccn(C(=O)OCCOCCOCCOC(=O)NCCCC[C@@H]3NC(=O)[C@@H](Cc4ccc(O)cc4)NC(=O)[C@H](CC(=O)O)NC(=O)CNC(=O)[C@H](CCCNC(=N)N)NC3=O)n1)C(C)(C)c1[nH]c3cc(C#N)ccc3c1C2=O [geo75] |  |  |  |  |  |  |  | 0.183 | 24h 15min h min | > 48 |  |  | time after which almost completely hydrolyzed ([3]; DMEM, 37 °C): 9 h; time after which almost completely hydrolyzed ([4]; 37 °C): 1 h
0.03 ± 0.0017 | 5 ± 0.2 | 9 ± 0.2 | 12 ± 0.9 | 17 ± 0.5 | 8 ± 0.5 | 10 ± 0.3 | 3 to 18 | CCc1cc2c(cc1-c1ccn(C(=O)CCCC(=O)NCCCC[C@@H]3NC(=O)[C@@H](Cc4ccc(O)cc4)NC(=O)[C@H](CC(=O)O)NC(=O)CNC(=O)[C@H](CCCNC(=N)N)NC3=O)n1)C(C)(C)c1[nH]c3cc(C#N)ccc3c1C2=O [geo77] |  |  |  |  |  | 4 ± 0.4 | 3 ± 0.4 | 0.167 to 0.833 | 1 h 44 min h min |  |  |  | 
